# Measurements from US12162892B2, “CD16a binding agents and uses thereof” (KLEO PHARMACEUTICALS, INC., priority 2018, dated 2024).
# “And” between values parts separate entries of the source, which are not always exact repeats. Identical values can stand only once.
# Experiments:
# CD16a158V [1] = target: T1, CD16a158V (Homo sapiens, UniProt P08637, F176V); experiment: Biotinylated Ligand ELISA Assay; assay type: binding; conditions: Biotinylated CD16a protein at 10 nM
# Method in brief: (§1)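 Neutravidin-coated plates, BSA-blocked, loaded with biotinylated ligands 1 h at 25° C., free sites blocked with 100 μM biotin. Bound protein detected with streptavidin-HRP 1 h at 25° C. and chemiluminescent substrate for 5 min; luminescence read.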
# primary monocytes = experiment: ADCP assay using fresh primary monocytes; assay type: cell-based, human; conditions: beads loaded with test compound at 50 uM; 37C for 18 hrs
# Procedure: (§2) Biotinylated fluorescent beads (Invitrogen, cat #P35372) were thoroughly mixed by vortexing for 1 min. Ten microliters of supplied bead suspension per treatment type were dispensed in Eppendorf tubes, and washed with 1 ml PBS […], then re-suspended in 500 uL of 1% BSA in PBS. Test compounds were added to bead suspensions to a final concentration of 50 uM, and biotinylated human IgG whole molecule (Rockland 009-0602) final concentration of 20 ug/mL.
# (§3) Tubes were incubated at room temperature for 1 hr on a rocking platform.
# (§4) Following incubation, beads were pelleted in a microcentrifuge at 12,000 g for 5 minutes at room temperature. Supernatants were carefully aspirated and beads were washed 5 times by resuspending in 1 ml of PBS 1% BSA, and centrifuging as described above. Finally, beads were resuspended in 500 ul of PBS 1% BSA and used in ADCP assay.
# PBMC, freshly isolated from whole blood (Bioreclamation IVT0) using Ficoll-Paque density centrifugation were resuspended in serum-free, supplemented RPMI at 2×10^6 cells/mL.
# Ten milliliters of the resulting cell suspension was seeded into 75-cm^2 tissue culture flask (Denville Scientific TC9341) and incubated 2-3 hr at 37° C. 5% CO2 to allow cell adhesion. Following incubation, media was decanted and surface of the flask was carefully washed twice, each time with 10 ml serum-free, supplemented RPMI to remove any residual non-adherent cells. To remove adherent cells, 10 mL of ice-cold 2.5 mM EDTA/PBS solution was added for 10 min on ice. Cells were transferred to a 15-ml conical tube and centrifuge 10 min at 300×g, room temperature, to remove the EDTA/PBS solution. Monocytes were then resuspended in RPMI 10% FCS at 5×10^5 cells/mL to be used in ADCP assay. Monocyte purity was assessed by staining cells with antibodies to human CD3 FITC (Biolegend 300306), CD19 PeCy7 (Biolegend 302216), CD14 BV421 (BD Biosciences, 565283), and CD16 (Biolegend 302046).
# (§5) Monocytes or THP-1 cells (TIB-202 ATCC) were seeded into 96 well round bottom 96 well plates at the density of 10^5 cells per well in 200 ul, and 10 uL of fluorescent bead suspension prepared as described above was added to each well. Well contents were mixed by pipetting up and down using a multichannel pipet, and plates were incubated at 37C for 18 hrs. After incubation, well contents were transferred into flat bottom black 96 well plates (Costar #3358) and centrifuged for 2 minutes at 300 g to allow for better visualization of the cells. Images were taken using Zoe fluorescent cell imager (Biorad).
# [2] = tested on: CD16a negative THP1 cells; experiment: ADCP assay using THP-1 cells; assay type: cell-based; conditions: beads loaded with test compound at 50 uM; 37C for 18 hrs
# Procedure: as §2, §3, §4, §5
# CD16a158F [3] = target: T2, CD16a158F (Homo sapiens, UniProt P08637); experiment: Biotinylated Ligand ELISA Assay; assay type: binding; parameters: purchased Acro Biosystems CDA-H82E8; conditions: Biotinylated CD16a protein at 10 nM
# T2 sequence (P08637 17-208 limits assumed): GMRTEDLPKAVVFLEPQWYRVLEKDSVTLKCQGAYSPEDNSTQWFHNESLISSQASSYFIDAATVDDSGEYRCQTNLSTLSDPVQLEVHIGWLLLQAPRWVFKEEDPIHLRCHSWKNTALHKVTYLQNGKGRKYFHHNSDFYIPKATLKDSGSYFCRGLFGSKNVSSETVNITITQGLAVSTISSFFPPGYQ
# Method in brief: as §1
# CD16a158F [4] = target: T2, CD16a158F; experiment: Microscale Thermophoresis; assay type: binding; parameters: purchased Acro Biosystems CDA-H82E8; conditions: read-out: MST-CD16a158F KD
# Procedure: (§6) Target proteins (poly-histidine tagged, 600 nM) were fluorescently labeled combination with an equal volume of dye (200 nM, His-Tag labeling kit RED-tris-NTA NanoTemper: MO-L008) PBST. The mixture rotated in the dark for 45 min before being spun down at 12000 rpm for 15 min to remove uncomplexed material. The fluorescence of the removed supernatant was adjusted to for a test concentration of 40-80 nM (2× the final measured). Test ligands were prepared across a 12-point dilution series in a 96-well PCR plate at a volume of 20 uL at 2× the concentration desired for testing (0.2% BSA in PBST). The dilution series was then combined with an equal volume of the labeled target at 2× the concentration desired for testing. Capillaries were added to the wells of the combined target/ligand complex and measured by MST. Measurements were taken using a Nanotemper Monolith NT.115, and the data was analyzed using NanoTemper MO.Control software.
# CD16a158V [5] = target: T1, CD16a158V; experiment: Microscale Thermophoresis; assay type: binding; conditions: read-out: MST-CD16a158V KD
# Procedure: as §6
# CD16a158F [6] = target: T2, CD16a158F; experiment: Biotin ELISA, interaction with various receptors (Example 55); assay type: binding; conditions: three replicate values per compound
# Method in brief: (§7)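 Capture surface: neutravidin at 5 μg/ml, BSA-blocked, carrying biotinylated ligand diluted in PBSTB with 1 h incubations at 25° C and gentle shaking. Unoccupied sites were blocked using biotin at 100 μM. Read-out was luminescence from HRP substrate.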
# CD16a158V [7] = target: T1, CD16a158V; experiment: as above; assay type: binding; conditions: three replicate values per compound
# Method in brief: as §7
# CD32a H167 = target: T3, CD32a H167 (Homo sapiens, UniProt P12318); experiment: as above; assay type: binding; conditions: three replicate values per compound
# T3 sequence (P12318 36-218 limits assumed): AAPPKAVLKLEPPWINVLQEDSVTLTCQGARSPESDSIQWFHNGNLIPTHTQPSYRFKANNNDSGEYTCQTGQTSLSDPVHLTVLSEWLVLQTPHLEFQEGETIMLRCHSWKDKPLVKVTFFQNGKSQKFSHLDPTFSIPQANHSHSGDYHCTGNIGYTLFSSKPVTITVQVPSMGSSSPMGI
# Method in brief: as §7
# CD32a-R167 = experiment: as above; assay type: binding; conditions: three replicate values per compound
# Method in brief: as §7
# CD32b = target: T4, CD32b (Homo sapiens, UniProt P31994); experiment: as above; assay type: binding; conditions: three replicate values per compound
# T4 sequence (P31994 43-310): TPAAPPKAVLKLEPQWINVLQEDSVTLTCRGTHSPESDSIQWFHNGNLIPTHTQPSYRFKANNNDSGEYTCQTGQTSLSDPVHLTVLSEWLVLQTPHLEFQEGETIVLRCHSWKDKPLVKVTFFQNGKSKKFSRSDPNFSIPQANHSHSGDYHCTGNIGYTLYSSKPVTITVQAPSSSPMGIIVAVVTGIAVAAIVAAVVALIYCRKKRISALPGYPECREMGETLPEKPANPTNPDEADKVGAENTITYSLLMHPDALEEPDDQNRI
# Method in brief: as §7
# CD3ed = CD3ed (Homo sapiens, UniProt P04234+P07766); experiment: as above; assay type: binding; conditions: three replicate values per compound
# CD3ed, sequence (P07766 23-126 limits assumed): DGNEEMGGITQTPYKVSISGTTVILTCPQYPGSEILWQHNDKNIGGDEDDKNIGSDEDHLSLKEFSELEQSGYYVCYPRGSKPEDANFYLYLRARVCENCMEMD
# CD3ed, sequence (P04234 22-105 limits assumed): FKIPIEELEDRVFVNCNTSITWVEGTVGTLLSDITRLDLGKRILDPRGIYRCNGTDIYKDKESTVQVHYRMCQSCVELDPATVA
# Method in brief: as §7
# CD64 = CD64 (Homo sapiens, UniProt P12314); experiment: as above; assay type: binding; conditions: three replicate values per compound
# CD64, sequence (P12314 16-374): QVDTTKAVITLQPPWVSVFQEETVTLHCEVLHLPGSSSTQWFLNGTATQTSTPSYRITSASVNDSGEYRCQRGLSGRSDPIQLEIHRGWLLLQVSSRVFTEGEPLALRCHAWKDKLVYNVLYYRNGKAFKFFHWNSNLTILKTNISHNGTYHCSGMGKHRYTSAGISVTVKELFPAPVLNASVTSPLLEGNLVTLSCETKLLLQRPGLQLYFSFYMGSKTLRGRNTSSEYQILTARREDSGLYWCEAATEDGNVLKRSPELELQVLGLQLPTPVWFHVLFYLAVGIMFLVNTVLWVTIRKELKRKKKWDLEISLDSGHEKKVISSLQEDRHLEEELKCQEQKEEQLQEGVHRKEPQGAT
# Method in brief: as §7
# [8] = Biotin ELISA, No Protein (Example 55); assay type: binding; conditions: three replicate values per compound
# Method in brief: as §7
# CD16a158V [9] = experiment: CD16a-MATE ELISA; assay type: binding; conditions: Carbohydrate Conjugated MATEs; relative to Rituximab; Antibodies tested at 2 ug/mL
# CD16a158F [10] = target: T2, CD16a158F; experiment: CD16a-MATE ELISA; assay type: binding; parameters: purchased Acro Biosystems CDA-H82E8; conditions: Carbohydrate Conjugated MATEs; relative to Rituximab; Antibodies tested at 2 ug/mL
# T1 sequence (P08637 17-208 F176V): as the sequence (P08637 17-208 limits assumed) above, with F160V counted along it
compound,measurement,setting,value
O=C(CCCC[C@@H]1SC[C@@H]2NC(=O)N[C@@H]21)NCCOCCOCCOCCOCCOCCOCCOCCOCCn1cc(-c2cccc(NC(=O)N3CCC4(CC3)NC(=O)N(c3ccccc3)C4=O)c2)nn1 [Compound I-27],Biotinylated Ligand ELISA-CD16a158V Binding (RLU),CD16a158V [1],"B (a relative luminescence value (RLU) of 10,000-100,000)"
same,ACDP (primary monocytes)-normalized phagocytosis score,primary monocytes,A (a normalized phagocytosis score of >2.0)
same,ACDP (CD16a negative THP1 cells)-normalized phagocytosis score,[2],B (a normalized phagocytosis score of 1.5-2.0)
same,Biotinylated Ligand ELISA-CD16a158F Binding (RLU),CD16a158F [3],"B (a relative luminescence value (RLU) of 10,000-100,000)"
same,Kd,CD16a158F [4],100 to 500 nM
O=C(CCCC[C@@H]1SC[C@@H]2NC(=O)N[C@@H]21)NCCOCCOCCOCCOCCOCCOCCOCCOCCn1cc(-c2ccc(C(=O)N3CCC4(CC3)NC(=O)N(Cc3ccccc3)C4=O)cc2)nn1 [Compound I-28],Biotinylated Ligand ELISA-CD16a158V Binding (RLU),CD16a158V [1],"B (a relative luminescence value (RLU) of 10,000-100,000)"
same,Biotinylated Ligand ELISA-CD16a158F Binding (RLU),CD16a158F [3],"B (a relative luminescence value (RLU) of 10,000-100,000)"
same,Kd,CD16a158F [4],100 to 500 nM
COc1ccc(OC)c(N2CC(C(=O)Nc3ccc(-c4cn(CCCC(=O)O)nn4)cc3)CC2=O)c1 (stereo not shown) [Compound I-29],Kd,CD16a158V [5],100 to 500 nM
same,Kd,CD16a158F [4],100 to 500 nM
O=C(CCCC[C@@H]1SC[C@@H]2NC(=O)N[C@@H]21)NCCOCCOCCOCCOCCOCCOCCOCCOCCC(=O)N1CCC(N2CC(=O)N(c3ccccc3)C2=O)CC1 [Compound I-30],Kd,CD16a158F [4],> 1000 nM
O=C(CCCC[C@@H]1SC[C@@H]2NC(=O)N[C@@H]21)NCCOCCOCCOCCOCCOCCOCCOCCOCCn1cc(-c2ccc(NC(=O)C3CC(=O)N(c4cc(F)ccc4F)C3)cc2)nn1 (stereo partly shown) [Compound I-31],Biotinylated Ligand ELISA-CD16a158V Binding (RLU),CD16a158V [1],"C (a relative luminescence value (RLU) of 1,000-10,000)"
same,Biotin ELISA Results CD16a-158F,CD16a158F [6],1915 and 592 and 1294
same,Biotin ELISA Results CD16a-158V,CD16a158V [7],2241 and 1940 and 2108
same,Biotin ELISA Results CD32a-H167,CD32a H167,3965 and 4173 and 4715
same,Biotin ELISA Results CD32a-R167,CD32a-R167,4134 and 3245 and 4916
same,Biotin ELISA Results CD32b,CD32b,3983 and 3476 and 6119
same,Biotin ELISA Results CD3ed,CD3ed,2134 and 3894 and 2741
same,Biotin ELISA Results CD64,CD64,68732 and 70002 and 48114
same,Biotin ELISA Results No Protein,[8],2129 and 3223 and 1542
same,Biotinylated Ligand ELISA-CD16a158F Binding (RLU),CD16a158F [3],"C (a relative luminescence value (RLU) of 1,000-10,000)"
same,Kd,CD16a158F [4],500 to 1000 nM
O=C(CCCC[C@@H]1SC[C@@H]2NC(=O)N[C@@H]21)NCCOCCOCCOCCOCCOCCOCCOCCOCCn1cc(-c2ccc(NC(=O)C3CC(=O)N(c4ccccc4)C3)cc2)nn1 (stereo partly shown) [Compound I-36],Biotinylated Ligand ELISA-CD16a158V Binding (RLU),CD16a158V [1],"C (a relative luminescence value (RLU) of 1,000-10,000)"
same,Kd,CD16a158V [5],1 to 100 nM
same,ACDP (primary monocytes)-normalized phagocytosis score,primary monocytes,B (a normalized phagocytosis score of 1.5-2.0)
same,ACDP (CD16a negative THP1 cells)-normalized phagocytosis score,[2],B (a normalized phagocytosis score of 1.5-2.0)
same,Biotin ELISA Results CD16a-158F,CD16a158F [6],2154 and −1155 and −213
same,Biotin ELISA Results CD16a-158V,CD16a158V [7],−378 and −180 and −282
same,Biotin ELISA Results CD32a-H167,CD32a H167,1138 and 43 and 249
same,Biotin ELISA Results CD32a-R167,CD32a-R167,280 and −228 and −1215
same,Biotin ELISA Results CD32b,CD32b,98 and 1052 and 486
same,Biotin ELISA Results CD3ed,CD3ed,1016 and −29 and −4459
same,Biotin ELISA Results CD64,CD64,54153 and 79621 and 89966
same,Biotin ELISA Results No Protein,[8],−764 and −989 and −154
same,Biotinylated Ligand ELISA-CD16a158F Binding (RLU),CD16a158F [3],"C (a relative luminescence value (RLU) of 1,000-10,000)"
Rituximab (UDP-GalNAz labeled),CD16a158V Normalized* Response (%),CD16a158V [9],C (an ELISA result of 15-25% relative to Rituximab)
same,CD16a158F Normalized* Response (%),CD16a158F [10],C (an ELISA result of 15-25% relative to Rituximab)
